Test results as given in ChEMBL document CHEMBL4000146, “Synthesis, antiplasmodial activity and mechanistic studies of pyrimidine-5-carbonitrile and quinoline hybrids” (Eur J Med Chem, 2015).

Key:
Plasmodium falciparum [1] = assay: Resistance index, ratio of IC50 for chloroquine-resistant asexual intraerythrocytic stage of Plasmodium falciparum Dd2 to IC50 for chloroquine-sensitive asexual intraerythrocytic stage of Plasmodium falciparum NF54; assay type: functional
L1210 = assay: Cytotoxicity against mouse L1210 cells assessed as inhibition of cell proliferation by Coulter counter analysis; assay type: cell-based
CCRF-CEM = assay: Cytotoxicity against human CEM cells assessed as inhibition of cell proliferation by Coulter counter analysis; assay type: cell-based
HeLa = assay: Cytotoxicity against human HeLa cells assessed as inhibition of cell proliferation by Coulter counter analysis; assay type: cell-based
[2] = Selectivity index, ratio of IC50 for human HeLa cells to IC50 for chloroquine-sensitive asexual intraerythrocytic stage of Plasmodium falciparum NF54; assay type: toxicity, cell-based; conditions: read-out: Ratio IC50
[3] = Selectivity index, ratio of IC50 for human HeLa cells to IC50 for chloroquine-resistant asexual intraerythrocytic stage of Plasmodium falciparum Dd2; assay type: toxicity, cell-based; conditions: read-out: Ratio IC50
[4] = Cytotoxicity against human HEL cells assessed as alteration of normal cell morphology by microscopic analysis; assay type: cell-based
[5] = Cytotoxicity against human HEL cells assessed as inhibition of cell viability by colorimetric formazan-based MTS assay
[6] = Cytotoxicity against human HeLa cells assessed as alteration of normal cell morphology by microscopic analysis; assay type: cell-based
[7] = Cytotoxicity against african green monkey Vero cells assessed as alteration of normal cell morphology by microscopic analysis; assay type: cell-based; conditions: chlorocebus sabaeus
Human alphaherpesvirus 1 [8] = assay type: functional, cell-based; conditions: Human alphaherpesvirus 1, KOS, HEL
Human alphaherpesvirus 2 = assay type: functional, cell-based; conditions: Human alphaherpesvirus 2, G, HEL
Human alphaherpesvirus 1 [9] = assay type: functional, cell-based; conditions: Human alphaherpesvirus 1, KOS, HEL; remark: listed apart in the source
unidentified adenovirus = assay type: functional, cell-based; conditions: HEL
Coxsackievirus [10] = assay type: functional, cell-based; conditions: B4, HeLa
Human orthopneumovirus = assay type: functional, cell-based; conditions: human respiratory syncytial virus, HeLa
Human respirovirus 3 = assay type: functional; conditions: Human respirovirus 3, Vero
[11] = tested on: Mammalian orthoreovirus 1; assay type: functional; conditions: Mammalian orthoreovirus 1, Vero
Sindbis virus = assay type: functional; conditions: Vero
Coxsackievirus [12] = assay type: functional; conditions: B4, Vero
Punta Toro virus = assay type: functional; conditions: Vero
Human betaherpesvirus 5 [13] = assay type: functional, cell-based; conditions: Human betaherpesvirus 5, AD169, HEL
Human betaherpesvirus 5 [14] = assay type: functional, cell-based; conditions: Human betaherpesvirus 5, Davis, HEL
Human alphaherpesvirus 3 [15] = assay type: functional, cell-based; conditions: Human alphaherpesvirus 3, strain Oka vaccine, HEL
Human alphaherpesvirus 3 [16] = assay type: functional, cell-based; conditions: Human alphaherpesvirus 3, 07-1, HEL
[17] = Cytotoxicity against MDCK cells assessed as alteration of normal cell morphology by microscopic analysis; assay type: cell-based, Canis lupus familiaris; conditions: dog
[18] = Cytotoxicity against MDCK cells assessed as inhibition of cell viability by colorimetric formazan-based MTS assay; design: species or system Canis lupus familiaris; conditions: dog
Plasmodium falciparum [19] = assay: microbe, parasite or virus in culture; conditions: NF54
Plasmodium falciparum [20] = assay: microbe, parasite or virus in culture; conditions: Dd2
Vaccinia virus = assay: microbe, parasite or virus in culture; conditions: Orthopoxvirus vaccinia, HEL
[21] = tested on: Vesicular stomatitis virus; assay: microbe, parasite or virus in culture; conditions: HEL
[22] = tested on: Vesicular stomatitis virus; assay: microbe, parasite or virus in culture; conditions: HeLa
Influenza A virus [23] = assay: microbe, parasite or virus in culture; conditions: H1N1, MDCK
Influenza A virus [24] = assay: microbe, parasite or virus in culture; conditions: H3N2, MDCK
Influenza B virus = assay: microbe, parasite or virus in culture; conditions: MDCK

| Structure (SMILES) | Ratio IC50 (Plasmodium falciparum [1]) | IC50 (L1210) | IC50 (CCRF-CEM) | IC50 (HeLa) | selectivity ratio [2] | selectivity ratio [3] | MCC [4] | CC50 [5] | MCC [6] | EC50 (Human alphaherpesvirus 1 [8]) | EC50 (Human alphaherpesvirus 2) | EC50 (Human alphaherpesvirus 1 [9]) | EC50 (Human betaherpesvirus 5 [13]) | EC50 (Human betaherpesvirus 5 [14]) | EC50 (Human alphaherpesvirus 3 [15]) | EC50 (Human alphaherpesvirus 3 [16]) | IC50 (Plasmodium falciparum [19]) | IC50 (Plasmodium falciparum [20]) | EC50 (Vaccinia virus) | EC50 [21] | further results |
| --- | --- | --- | --- | --- | --- | --- | --- | --- | --- | --- | --- | --- | --- | --- | --- | --- | --- | --- | --- | --- | --- |
| COc1ccc(-c2nc(SC)nc(NCCCCNc3ccnc4cc(Cl)ccc34)c2C#N)cc1OC | 6.65 | 18 µM | 16 µM | 20 µM | 104 | 15.5 | ≥ 100 µM | 84.1 µM | 100 µM | > 100 µM | > 100 µM | > 100 µM | > 20 µM | > 20 µM | > 20 µM | > 20 µM | 0.193 µM | 1.28 µM | > 100 µM | > 100 µM | MCC [7]: > 100 µM; EC50 (unidentified adenovirus): > 20 µM; EC50 (Coxsackievirus [10]): > 20 µM; EC50 (Human orthopneumovirus): > 20 µM; EC50 (Human respirovirus 3): > 100 µM; EC50 [11]: > 100 µM; EC50 (Sindbis virus): > 100 µM; EC50 (Coxsackievirus [12]): > 100 µM; EC50 (Punta Toro virus): > 100 µM; MCC [17]: 20 µM; CC50 [18]: 10 µM; EC50 [22]: > 20 µM; EC50 (Influenza A virus [23]): > 4 µM; EC50 (Influenza A virus [24]): > 4 µM; EC50 (Influenza B virus): > 4 µM |
| CSc1nc(-c2ccc([N+](=O)[O-])cc2)c(C#N)c(N2CCN(c3ccnc4cc(Cl)ccc34)CC2)n1 | 0.8 | 206 µM | 156 µM | 228 µM | 18.6 | 23.1 | ≥ 100 µM | > 100 µM | > 100 µM | > 100 µM | > 100 µM | > 100 µM | > 100 µM | > 100 µM | > 100 µM | > 100 µM | 12.2 µM | 9.86 µM | > 100 µM | > 100 µM | MCC [7]: 100 µM; EC50 (unidentified adenovirus): > 100 µM; EC50 (Coxsackievirus [10]): > 100 µM; EC50 (Human orthopneumovirus): > 100 µM; EC50 (Human respirovirus 3): > 20 µM; EC50 [11]: > 20 µM; EC50 (Sindbis virus): > 20 µM; EC50 (Coxsackievirus [12]): > 20 µM; EC50 (Punta Toro virus): > 20 µM; MCC [17]: > 100 µM; CC50 [18]: > 100 µM; EC50 [22]: > 100 µM; EC50 (Influenza A virus [23]): > 100 µM; EC50 (Influenza A virus [24]): > 100 µM; EC50 (Influenza B virus): > 100 µM |
| CSc1nc(NCCCCNc2ccnc3cc(Cl)ccc23)c(C#N)c(-c2ccccc2)n1 | 2.71 | 4.4 µM | 5.2 µM | 8.5 µM | 78.3 | 28.7 | 4 to 20 µM | 8.2 µM | 100 µM | > 0.8 µM | > 0.8 µM | > 0.8 µM | > 4 µM | > 4 µM | > 4 µM | > 4 µM | 0.109 µM | 0.295 µM | > 0.8 µM | > 0.8 µM | MCC [7]: 20 µM; EC50 (unidentified adenovirus): > 4 µM; EC50 (Coxsackievirus [10]): > 20 µM; EC50 (Human orthopneumovirus): > 20 µM; EC50 (Human respirovirus 3): > 4 µM; EC50 [11]: > 4 µM; EC50 (Sindbis virus): > 4 µM; EC50 (Coxsackievirus [12]): > 4 µM; EC50 (Punta Toro virus): > 4 µM; MCC [17]: 20 µM; CC50 [18]: 10.7 µM; EC50 [22]: > 20 µM; EC50 (Influenza A virus [23]): > 4 µM; EC50 (Influenza A virus [24]): > 4 µM; EC50 (Influenza B virus): > 4 µM |
| N#Cc1c(NCCCCNc2ccnc3cc(Cl)ccc23)nc(N2CCOCC2)nc1-c1ccccc1 | 1.95 | 4.2 µM | 4.6 µM | 17 µM | 86.3 | 44 | 20 µM | 11.9 µM | 20 µM | > 4 µM | > 4 µM | > 4 µM | > 4 µM | > 4 µM | > 4 µM | > 4 µM | 0.198 µM | 0.386 µM | > 4 µM | > 4 µM | MCC [7]: 20 µM; EC50 (unidentified adenovirus): > 4 µM; EC50 (Coxsackievirus [10]): > 4 µM; EC50 (Human orthopneumovirus): > 4 µM; EC50 (Human respirovirus 3): > 4 µM; EC50 [11]: > 4 µM; EC50 (Sindbis virus): > 4 µM; EC50 (Coxsackievirus [12]): > 4 µM; EC50 (Punta Toro virus): > 4 µM; MCC [17]: 20 µM; CC50 [18]: 10.9 µM; EC50 [22]: > 4 µM; EC50 (Influenza A virus [23]): > 4 µM; EC50 (Influenza A virus [24]): > 4 µM; EC50 (Influenza B virus): > 4 µM |
| Nc1nc2c(ncn2COCCO)c(=O)[nH]1 [ACYCLOVIR] |  |  |  |  |  |  | 250 to 400 µM |  |  | 0.2 µM | 0.1 µM | 10 µM | 1.24 µM | 0.51 µM | 1.69 µM | 49.3 µM |  |  | > 250 µM | > 250 µM |  |
| C[C@H]1[C@H](OC(=O)CCC(=O)O)O[C@@H]2O[C@@]3(C)CC[C@H]4[C@H](C)CC[C@@H]1[C@@]24OO3 [ARTESUNATE] | 1.38 |  |  |  |  |  |  |  |  |  |  |  |  |  |  |  | 0.0126 µM | 0.0174 µM |  |  |  |
